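Method: 48-hour compound exposure of cells in 96-well plates, five concentrations, linear interpolation of endpoints. GI50 marks 50% less growth. TGI denotes the concentration required for complete inhibition of growth.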
What was measured:
Assay in all cases: inhibition of tumour cell growth, NCI panel, 48 h
T-47D breast = tested on: T-47D breast
SK-MEL-28 melanoma = tested on: SK-MEL-28 melanoma
SN12C renal = tested on: SN12C renal
KM12 colon = tested on: KM12 colon
SK-OV-3 ovarian = tested on: SK-OV-3 ovarian
COLO 205 colon = tested on: COLO 205 colon
HOP-62 NSCLC = tested on: HOP-62 NSCLC
MDA-MB-231 breast = tested on: MDA-MB-231 breast
MOLT-4 leukemia = tested on: MOLT-4 leukemia
EKVX NSCLC = tested on: EKVX NSCLC

Structure (SMILES) | GI50 (T-47D breast) | TGI (T-47D breast) | GI50 (SK-MEL-28 melanoma) | TGI (SK-MEL-28 melanoma) | GI50 (SN12C renal) | TGI (SN12C renal) | GI50 (KM12 colon) | TGI (KM12 colon) | GI50 (SK-OV-3 ovarian) | TGI (SK-OV-3 ovarian) | GI50 (COLO 205 colon) | TGI (COLO 205 colon) | GI50 (HOP-62 NSCLC) | TGI (HOP-62 NSCLC) | GI50 (MDA-MB-231 breast) | TGI (MDA-MB-231 breast) | GI50 (MOLT-4 leukemia) | TGI (MOLT-4 leukemia) | GI50 (EKVX NSCLC) | TGI (EKVX NSCLC)
NC1=NC(c2ccc(Cl)cc2)C2=C(N1)/C(=C/c1ccc(Cl)cc1)CCC2 (centres undefined) | 11.6 µM | > 100 µM | 17 µM | 45.4 µM | 17.3 µM | 50.4 µM | 2.32 µM | 5.27 µM | 23.5 µM | > 100 µM | 6.17 µM | 19.9 µM | 15 µM | 53 µM | > 29.6 µM | > 56.1 µM | 9.47 µM | 57 µM | 13.3 µM | 78.4 µM
CC(=O)OC1CC2(O)C3CCC4CC(O)CCC4(C)C3CCC2(C)C1C1=CC(=O)OC1 (centres undefined) | – | 0.73 µM | – | 0.654 µM | – | 0.16 µM | – | 1.87 µM | – | 0.642 µM | – | 0.76 µM | – | 0.178 µM | – | 6.61 µM | – | 0.0593 µM | – | 0.159 µM
C=C(c1ccc(C(=O)N(C)c2ccccc2N)cc1)C(C)N1C(=O)[C@H]2CCCN2C(=O)c2ccccc21 (some centres undefined) | 16.5 µM | 90.5 µM | 31.2 µM | > 100 µM | 26.4 µM | > 100 µM | > 100 µM | > 100 µM | 6.72 µM | 84.2 µM | 24 µM | > 100 µM | 31.6 µM | > 100 µM | 58.5 µM | > 100 µM | 24.8 µM | 97.9 µM | 80.6 µM | > 100 µM
C=CC1CC12C(=O)C1OC2(C)C2C(=O)c3c(O)ccc(O)c3C(=O)C12 (centres undefined) | 2.56 µM | 14.1 µM | 4.94 µM | 25.4 µM | 3.2 µM | 11.6 µM | 5.83 µM | 17.3 µM | 11.9 µM | 41.2 µM | 1.52 µM | 17 µM | 9.66 µM | 25 µM | 2.33 µM | 7.38 µM | 0.617 µM | 17 µM | 7.46 µM | 28.2 µM
C/C(=N\N=C(/[Se])N1CC2CCC(CC2)C1)c1ccccn1 | – | 3.05 µM | – | 1.03 µM | – | 2.57 µM | – | 1.54 µM | – | 2.09 µM | – | 0.063 µM | – | 1.92 µM | – | 2.65 µM | – | 1.16 µM | – | 2.06 µM
COc1cc(/C=C2\CN(C)C/C(=C\c3cc(CN4CCCCC4)c(O)c(OC)c3)C2=O)cc(CN2CCCCC2)c1O | 5.72 µM | 24 µM | 11.6 µM | 24.5 µM | 3.24 µM | 12.8 µM | 2.17 µM | 4.97 µM | 7.71 µM | 37.2 µM | 1.96 µM | 3.74 µM | 4.28 µM | 18.4 µM | 3.18 µM | 11.6 µM | 2.95 µM | 10.7 µM | 4.57 µM | 17.6 µM
COc1cc(/C=C2\CCC(CN(C)C)C2=O)ccc1OC(=O)c1ccccc1 (centres undefined) | – | 7.9 µM | – | 29.2 µM | – | 25.1 µM | – | 13.7 µM | – | 52.4 µM | – | 24.8 µM | – | 23.5 µM | – | 19.1 µM | – | 7.03 µM | – | 28.1 µM
O=C(O)c1cc(N=Cc2ccccc2O)cc(C(=O)O)c1 | – | > 100 µM | – | > 100 µM | – | > 100 µM | – | > 100 µM | – | > 100 µM | – | > 100 µM | – | > 100 µM | – | > 100 µM | – | > 100 µM | – | > 100 µM
Cc1ccc(-c2cc(C3=CC(=O)C=CC3=O)n(-c3ccc(S(N)(=O)=O)cc3)n2)cc1 | 46.8 µM | > 100 µM | > 100 µM | > 100 µM | 58.7 µM | > 100 µM | 24 µM | > 100 µM | – | – | 53.9 µM | > 100 µM | 69.7 µM | > 100 µM | 20.6 µM | 72.8 µM | 9.06 µM | > 100 µM | 47.8 µM | > 100 µM
O=C(N/N=C/c1ccc([N+](=O)[O-])cc1)c1ccc2nc(-c3ccc(Cl)cc3)[nH]c2c1 | 2.29 µM | 7.21 µM | 2.6 µM | 10.3 µM | 3.14 µM | 18.1 µM | 3.43 µM | 13 µM | 11.4 µM | 39.6 µM | – | – | 6.42 µM | 30.8 µM | 3.75 µM | 13.9 µM | 0.421 µM | 3.85 µM | 3.2 µM | 21.2 µM
O=C(Cc1cccc(OC(F)(F)F)c1)Nc1ccc(CCCCc2nnc(NC(=O)Cc3ccccn3)s2)nn1 | 3.46 µM | 26.5 µM | 93.1 µM | > 100 µM | 18.5 µM | > 100 µM | 14.1 µM | > 100 µM | 11.6 µM | 25.1 µM | 23.8 µM | > 100 µM | – | – | 29.8 µM | > 100 µM | 5.49 µM | > 100 µM | 13.3 µM | 68.7 µM
